This is an account of results in patent US12590072B2, “Thyromimetics” (Autobahn Therapeutics, Inc., priority 2020, dated 2026).

Each structure is given as a SMILES string.

In test [1] the target is T1, TRβ (TR-receptor hybrid with yeast Gal4 DBD) (Homo sapiens, UniProt P10828).
T1 construct: expressed in transfected cells; host or cells: HEK293
T1 sequence (P10828 217-461 limits assumed): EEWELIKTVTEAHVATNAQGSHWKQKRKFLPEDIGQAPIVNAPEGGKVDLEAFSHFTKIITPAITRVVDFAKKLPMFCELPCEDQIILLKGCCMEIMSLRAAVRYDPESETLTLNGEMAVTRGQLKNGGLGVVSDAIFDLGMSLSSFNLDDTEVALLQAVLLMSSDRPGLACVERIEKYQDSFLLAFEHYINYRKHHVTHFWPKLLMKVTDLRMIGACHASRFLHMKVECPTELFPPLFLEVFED
In words: Thyroid-hormone reporter-gene assay, TRβ. The format is cell-based. To be noted: for EC50: HEK293-derived reporter cells, firefly luciferase, 24 hr incubation; for T3-SI, selectivity index EC50 (TRα)/EC50 (TRβ): calculated from the reporter-gene EC50 values. The protocol:
(§1) Compounds were tested for thyroid-hormone receptor activity using TR reporter-gene assays. Reporter cells used in the assays express a TR-receptor hybrid (either TRα or TRβ) in which the native N-terminal DNA binding domain (DBD) has been replaced with that of the yeast Gal4 DBD. The reporter gene, firefly luciferase, is functionally linked to the Gal4 upstream activation sequence (UAS). Both cell lines were derived from human embryonic kidney (HEK293). • Step 1: A suspension of reporter cells was prepared in cell recovery medium containing 10% charcoal-stripped FBS, and dispensed into assay plates. […] These intermediate stocks were subsequently diluted directly into compound screening medium containing 10% charcoal-stripped FBS to generate “2×-concentration” treatment media (containing 0.2, 0.4 or 0.8% DMSO). • Step 3: At the end of the pre-incubation period, culture media were discarded from the assay plates, and all wells received 100 μl of compound screening medium. 100 μl of each of the previously prepared “2×-concentration” treatment media were dispensed into duplicate assay wells, thereby achieving the desired final treatment concentrations. The final concentration of DMSO in all assay wells was 0.1, 0.2 or 0.4%. Assay plates were incubated for 24 hr in a cell culture incubator (37° C./5% CO2/85% humidity). • Step 4: At the 24 h assay endpoint, treatment media were discarded and 100 μl/well of luciferase detection reagent was added. Relative luminometer units (RLUs) were quantified from each assay well.

Test [2] concerns the target T2, TRα (TR-receptor hybrid with yeast Gal4 DBD) (Homo sapiens, UniProt P10827).
T2 construct: expressed in transfected cells; host or cells: HEK293
T2 sequence (P10827 1-410 isoform P10827-2): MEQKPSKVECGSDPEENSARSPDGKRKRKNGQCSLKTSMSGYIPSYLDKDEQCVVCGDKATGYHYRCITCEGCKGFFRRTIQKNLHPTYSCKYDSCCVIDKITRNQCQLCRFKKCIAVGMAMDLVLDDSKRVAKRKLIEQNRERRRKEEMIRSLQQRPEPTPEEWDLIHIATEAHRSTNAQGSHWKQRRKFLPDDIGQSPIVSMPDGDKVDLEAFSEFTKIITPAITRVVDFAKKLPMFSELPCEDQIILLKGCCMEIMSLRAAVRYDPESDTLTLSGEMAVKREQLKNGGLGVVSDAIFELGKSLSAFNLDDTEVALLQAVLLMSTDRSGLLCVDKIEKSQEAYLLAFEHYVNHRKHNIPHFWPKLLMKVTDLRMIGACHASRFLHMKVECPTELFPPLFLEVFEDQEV
In words: Thyroid-hormone reporter-gene assay, TRα. It is filed as cell-based. The settings on record: HEK293-derived reporter cells, firefly luciferase, 24 hr incubation. As to the method: as §1

A word on the EC50: it is the concentration giving half of the maximal effect. Take `CC(C)c1cc(Cc2c(Cl)cc(-n3nc(C#N)c(O)nc3=O)cc2Cl)ccc1O` [Compound 1, 2-(3,5-dichloro-4-(4-hydroxy-3-isopropylbenzyl)phenyl)-5-hydroxy-3-oxo-2,3-dihydro-1,2,4-triazine-6-carbonitrile]: the results for the EC50 in test [1] and in test [2] were 10 to 100 nM and 100 to 1000 nM, respectively. Besides, the “T3-SI, selectivity index EC50 (TRα)/EC50 (TRβ)” value (from here on “T3-SI, selectivity index EC50”) in test [1] was “+++ (T3-SI>30×)”.

With `CC(C)c1c(O)ccc(Cc2c(Cl)cc(-n3nc(C#N)c(O)nc3=O)cc2Cl)c1F` [Compound 2, 2-(3,5-dichloro-4-(2-fluoro-4-hydroxy-3-isopropylbenzyl)phenyl)-5-hydroxy-3-oxo-2,3-dihydro-1,2,4-triazine-6-carbonitrile], the EC50 in test [1] and in test [2] was 10 to 100 nM each time. Also, the “T3-SI, selectivity index EC50” value in test [1] was “++ (3×<T3-SI≤30×)”.

For the compound `N#Cc1nn(-c2cc(Cl)c(Cc3ccc(O)c(-c4cccc(OC(F)F)c4)c3)c(Cl)c2)c(=O)nc1O` [Compound 3, 2-(3,5-dichloro-4-((3′-(difluoromethoxy)-6-hydroxy-[1,1′-biphenyl]-3-yl)methyl)phenyl)-5-hydroxy-3-oxo-2,3-dihydro-1,2,4-triazine-6-carbonitrile], in test [1], the EC50 was 100 to 1000 nM and the “T3-SI, selectivity index EC50” value is “+++ (T3-SI>30×)”. In test [2], the EC50 was more than 1000 nM.

In the case of `N#Cc1nn(-c2cc(Cl)c(Cc3ccc(O)c(Cc4ccc(F)cc4)c3)c(Cl)c2)c(=O)nc1O` [Compound 4, 2-(3,5-dichloro-4-(3-(4-fluorobenzyl)-4-hydroxybenzyl)phenyl)-5-hydroxy-3-oxo-2,3-dihydro-1,2,4-triazine-6-carbonitrile], in test [1], the EC50 lay within 100 to 1000 nM and the “T3-SI, selectivity index EC50” value was “++ (3×<T3-SI≤30×)”. The compound further had an EC50 in test [2] of more than 1000 nM.

In the case of `CC(C)c1cc(Cc2c(Cl)cc(-n3nc(C#N)c(O)nc3=O)cc2C(C)C)ccc1O` [Compound 5, 2-(3-chloro-4-(4-hydroxy-3-isopropylbenzyl)-5-isopropylphenyl)-5-hydroxy-3-oxo-2,3-dihydro-1,2,4-triazine-6-carbonitrile], the results for the EC50 in test [1] and in test [2] were less than 10 nM and 10 to 100 nM, respectively. In addition, in test [1], the “T3-SI, selectivity index EC50” value was “++ (3×<T3-SI≤30×)”.

Take `CC(C)c1cc(Cc2c(Cl)cc(-n3nc(C#N)c(O)nc3=O)c(F)c2Cl)ccc1O` [Compound 6, 2-(3,5-dichloro-2-fluoro-4-(4-hydroxy-3-isopropylbenzyl)phenyl)-5-hydroxy-3-oxo-2,3-dihydro-1,2,4-triazine-6-carbonitrile]: in test [1], the EC50 lay within 100 to 1000 nM and the “T3-SI, selectivity index EC50” value was “++ (3×<T3-SI≤30×)”. In test [2], the EC50 is 100 to 1000 nM.

`CC(C)c1c(O)ccc(Cc2c(Cl)cc(-c3cc(F)c(O)c(F)c3)cc2Cl)c1F` [Compound 7, 3′,5′-dichloro-3,5-difluoro-4′-(2-fluoro-4-hydroxy-3-isopropylbenzyl)-[1,1′-biphenyl]-4-ol]: the values for the EC50 in test [1] and in test [2] were 100 to 1000 nM and more than 1000 nM, respectively. In test [1], the “T3-SI, selectivity index EC50” value is “++ (3×<T3-SI≤30×)”.

Consider `CC(C)c1c(O)ccc(Cc2c(Cl)cc(-c3ccc(F)c(O)c3F)cc2Cl)c1F` [Compound 8, 3′,5′-dichloro-2,4-difluoro-4′-(2-fluoro-4-hydroxy-3-isopropylbenzyl)-[1,1′-biphenyl]-3-ol], for which the concentration for a half-maximal effect (EC50) in test [1] and in test [2] was more than 1000 nM throughout.

For the compound `CC(C)c1cc(Cc2c(Cl)cc(-c3cc(O)no3)cc2Cl)ccc1O` [Compound 9, 5-(3,5-dichloro-4-(4-hydroxy-3-isopropylbenzyl)phenyl)isoxazol-3-ol], the EC50 in test [1] was 10 to 100 nM; in test [2], 100 to 1000 nM. Also, in test [1], the “T3-SI, selectivity index EC50” value was “++ (3×<T3-SI≤30×)”.

On to `O=c1nc(O)cnn1-c1cc(Cl)c(Cc2ccc(O)c(-c3cccc(OC(F)F)c3)c2)c(Cl)c1` [Compound 10, 2-(3,5-dichloro-4-((3′-(difluoromethoxy)-6-hydroxy-[1,1′-biphenyl]-3-yl)methyl)phenyl)-5-hydroxy-1,2,4-triazin-3(2H)-one], for which, in test [1], the EC50 is less than 10 nM and the “T3-SI, selectivity index EC50” value was “++ (3×<T3-SI≤30×)”. In addition, in test [2], the EC50 was less than 10 nM.
